Experimental findings from PubChem BioAssay (NCI) are described below.

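1) Cells in 96-well plates. 2) Compound, 48 h, 5 concentrations. 3) Linear interpolation between surrounding doses. 4) Unreached endpoint = highest concentration. Abbreviation: GI50, concentration required for 50% inhibition of growth. TGI marks complete inhibition of growth.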

Some test systems named below: ACHN renal; SN12C renal; RXF 393 renal; MOLT-4 leukemia; SK-MEL-2 melanoma; OVCAR-3 ovarian; HL-60(TB) leukemia; BT-549 breast.
Holding throughout (test): NCI tumour cell line growth inhibition, 48 h

Take `COC1=C(Br)C(=O)c2nc(C)ccc2C1=O`: the TGI in the assay with ACHN renal was 24 µM; in the assay on SN12C renal, 29.1 µM; with RXF 393 renal it was 24.5 µM; in the assay with MOLT-4 leukemia, greater than 20.8 µM; in the assay on SK-MEL-2 melanoma, 30.1 µM; in the assay on OVCAR-3 ovarian, 19.5 µM.

For `N.N.NCCCCCCCCCN.O=C([O-])CC(=O)[O-].O=C([O-])CC(=O)[O-].[Pt+4].[Pt+4]`, the GI50 is 13.4 µM with HL-60(TB) leukemia; 90.3 µM in the assay with ACHN renal; 67.5 µM in the assay with SN12C renal; greater than 100 µM with RXF 393 renal; greater than 100 µM with MOLT-4 leukemia; greater than 100 µM with SK-MEL-2 melanoma. Moreover, the GI50 with OVCAR-3 ovarian was greater than 100 µM. The TGI with HL-60(TB) leukemia, in the assay on ACHN renal, in the assay on SN12C renal, in the assay with RXF 393 renal, with MOLT-4 leukemia and in the assay on SK-MEL-2 melanoma was greater than 100 µM in each case. Moreover, in the assay on OVCAR-3 ovarian, the TGI is greater than 100 µM.

For `[F][Sn]([F])([c]1ccccc1)[c]1ccccc1`, the GI50 was 1.01 µM in the assay on HL-60(TB) leukemia; 1.6 µM with ACHN renal; 1.68 µM with SN12C renal; 0.887 µM in the assay on RXF 393 renal; 1.17 µM in the assay with MOLT-4 leukemia; 1.91 µM with SK-MEL-2 melanoma. Moreover, in the assay on OVCAR-3 ovarian, the GI50 was 1.59 µM. Also, the TGI in the assay on HL-60(TB) leukemia was found to be 3.07 µM; in the assay with ACHN renal, 2.97 µM; in the assay with SN12C renal, 3.18 µM; in the assay on RXF 393 renal it was 2.64 µM; in the assay with MOLT-4 leukemia, 5.22 µM; in the assay on SK-MEL-2 melanoma it was 3.43 µM. The same compound showed a TGI in the assay on OVCAR-3 ovarian of 3 µM.

Consider `Cc1cccc(C(C)C)c1NC(=O)C(=O)C(C(=O)c1ccccc1F)C1OC(=O)c2ccccc21` (stereo not drawn), for which the TGI was greater than 100 µM in the assay on ACHN renal; 46.8 µM in the assay on SN12C renal; 27.5 µM in the assay on RXF 393 renal; 27.9 µM with MOLT-4 leukemia; 30.1 µM in the assay on SK-MEL-2 melanoma; 38 µM with OVCAR-3 ovarian.

For `CCOC(=O)Cn1c(=O)n(C)c(=O)c2c1ncn2Cc1ccccc1`, the TGI in the assay with ACHN renal, in the assay with SN12C renal, in the assay with MOLT-4 leukemia, in the assay with SK-MEL-2 melanoma and in the assay with OVCAR-3 ovarian was greater than 100 µM in each case.

Take `COc1cc(C(=O)N2CCc3c([nH]c4c([N+](=O)[O-])c(OC)ccc34)C2C)cc(OC)c1OC` (stereo not drawn): the TGI was greater than 100 µM in the assay on HL-60(TB) leukemia; greater than 100 µM in the assay with ACHN renal; greater than 100 µM in the assay on SN12C renal; 91.2 µM in the assay with RXF 393 renal; greater than 100 µM in the assay with MOLT-4 leukemia; greater than 100 µM in the assay with SK-MEL-2 melanoma. Besides, the TGI with OVCAR-3 ovarian was greater than 100 µM.

Regarding `COC(=O)/C(=C\c1ccc(N(CCC#N)CCC#N)cc1)NC(=O)c1cc([N+](=O)[O-])ccc1Cl`, the TGI with ACHN renal, with SN12C renal, with RXF 393 renal, with MOLT-4 leukemia, with SK-MEL-2 melanoma and in the assay with OVCAR-3 ovarian was greater than 100 µM each time.

For the compound `CC1=C(c2cc(C(=O)Nc3ccc(Cl)cc3)nc(=S)[nH]2)Sc2ccccc2N1`, the TGI in the assay with HL-60(TB) leukemia, with ACHN renal, with SN12C renal, in the assay on RXF 393 renal, in the assay on SK-MEL-2 melanoma and in the assay with OVCAR-3 ovarian was greater than 100 µM in each case.

For `C/C(CCn1[nH]c(=O)ccc1=O)=N\OCCCc1ccccc1`, the TGI with HL-60(TB) leukemia, in the assay with ACHN renal, in the assay with SN12C renal, in the assay with RXF 393 renal, in the assay with MOLT-4 leukemia and with SK-MEL-2 melanoma was greater than 100 µM each time. The compound further had a TGI in the assay with OVCAR-3 ovarian greater than 100 µM.

`Cc1cc(C(C)(C)C)cc(Cc2cc(C(C)(C)C)cc(Cc3cc(C(C)(C)C)cc(C)c3O)c2O)c1O`: the TGI in the assay with HL-60(TB) leukemia stood at 12.5 µM; with SN12C renal it was 33.6 µM; with RXF 393 renal it was 6.26 µM; in the assay with MOLT-4 leukemia, 10.6 µM; in the assay on SK-MEL-2 melanoma, 22.3 µM; in the assay on OVCAR-3 ovarian it was 16.5 µM.

For `c1ccc(CSc2nc3ccccc3nc2-c2cccs2)cc1`, the TGI in the assay on HL-60(TB) leukemia, in the assay with ACHN renal, with SN12C renal, with MOLT-4 leukemia, in the assay with SK-MEL-2 melanoma and in the assay on OVCAR-3 ovarian was greater than 100 µM throughout.

Consider `CCOc1ccccc1NC(=O)C(=O)Cc1nc2ccccc2s1`, for which the TGI with HL-60(TB) leukemia, in the assay with ACHN renal, in the assay with SN12C renal, with RXF 393 renal, in the assay with MOLT-4 leukemia and with SK-MEL-2 melanoma was greater than 100 µM throughout. The compound also displayed a TGI in the assay with OVCAR-3 ovarian greater than 100 µM.

As to `CC1=C(C(=O)NNS(=O)(=O)c2ccc(C)cc2)CC(C(=O)NNS(=O)(=O)c2ccc(C)cc2)=C(C)N1`, the TGI with HL-60(TB) leukemia, in the assay with ACHN renal, in the assay on SN12C renal, with RXF 393 renal, with MOLT-4 leukemia and in the assay on SK-MEL-2 melanoma was greater than 100 µM each time. In the assay on OVCAR-3 ovarian, this compound had a TGI greater than 100 µM.

In the case of `Cc1cccc(N=C2NC(=O)C(CC(=O)Nc3cccc(C)c3C)S2)c1` (stereo not drawn), the TGI with HL-60(TB) leukemia, with ACHN renal, in the assay on SN12C renal, in the assay on RXF 393 renal, in the assay on MOLT-4 leukemia and in the assay on SK-MEL-2 melanoma was greater than 100 µM throughout. The compound further displayed a TGI in the assay on OVCAR-3 ovarian greater than 100 µM.

As for `O=C(OCC(OC(=O)c1ccccc1)C(OC(=O)c1ccccc1)C(OC(=O)c1ccccc1)c1cnn(-c2ccccc2)n1)c1ccccc1` (stereo not drawn), the TGI with HL-60(TB) leukemia, in the assay with ACHN renal, in the assay on SN12C renal, in the assay on RXF 393 renal, in the assay on MOLT-4 leukemia and in the assay with OVCAR-3 ovarian was greater than 100 µM each time. Further, the TGI with BT-549 breast was greater than 100 µM.

`CC(C)(C)OC(=O)N1N=NC2C1C1CC(OCc3ccccc3)(OCc3ccccc3)C2O1` (stereo not drawn): the TGI in the assay on HL-60(TB) leukemia was 31.9 µM; in the assay on ACHN renal, greater than 100 µM; with SN12C renal, greater than 100 µM; in the assay with RXF 393 renal, greater than 100 µM; in the assay on MOLT-4 leukemia, greater than 100 µM; in the assay on SK-MEL-2 melanoma it was greater than 100 µM. The compound also returned a TGI in the assay with OVCAR-3 ovarian greater than 100 µM.
